Laboratory results from patent US20250081966A1, “HERBICIDE COMBINATIONS” (UPL CORPORATION LIMITED, priority 2021, published 2025).

What was measured:
Type in all cases: in vivo
[1] = system: Lolium multiflorum Lam. (Italian ryegrass, LOLMU); assay: Weed control of LOLMU in wheat crop, pre-emergence spray (Example 2); details: 450 g/L
Protocol: (§1) Experiments were conducted to assess the efficacy of herbicidal combination comprising napropamide/napropamide-M to control a weed, Lolium multiflorum Lam. (Italian ryegrass, LOLMU) in wheat crop. The weed is resistant to control by conventional herbicides. Percentage efficacy of the herbicidal combination was determined over time (measured as days after anthesis, [DAA]) following application of the herbicidal combination comprising napropamide/napropamide-M and propisochlor. The herbicide combination was applied by spraying to LOLMU at pre-emergence stage.

[2] = system: Lolium multiflorum Lam. (Italian ryegrass, LOLMU); assay: Weight of the weed in wheat crop (Example 2); details: for % Decrease in weight of weed: versus untreated control
Protocol: as §1
Further, the effect of the herbicidal combination was also assessed for the weight of the weed in wheat crop and the results has been disclosed in Table 3.

LOLMU (S-strain) = assay: Efficacy of pre-emergence spray against resistant weed LOLMU (Example 1); details: sprayed at pre-emergence stage
Protocol: Experiments were conducted to assess the efficacy of herbicidal combination comprising napropamide/napropamide-M to control a weed (LOLMU) which is resistant to control by conventional herbicides. Percentage efficacy of the herbicidal combination was determined over time (measured as days after anthesis, [DAA]) following application the of herbicidal combination comprising napropamide/napropamide-M and prosulfocarb. The herbicidal combination was applied by spraying to LOLMU (S-strain) at pre-emergence stage.

## CCN(CC)C(=O)C(C)Oc1cccc2ccccc12 (stereo not drawn) [Napropamid, N,N-diethyl-2-(α-naphthoxy) propionamide]
[1]; dose 750 g/Ha
  Weed control (%) 15 DAA: 65%
  Weed control (%) 25 DAA: 83%
  Weed control (%) 45 DAA: 79%
[1]; dose 1000 g/Ha
  Weed control (%) 15 DAA: 72%
  Weed control (%) 25 DAA: 86%
  Weed control (%) 45 DAA: 82%
[2]; 450 g/L, dose 750 g/Ha
  Weight of weed (g/m^2): 2.11 g/m^2
  % Decrease in weight of weed: 27%
[2]; 450 g/L, dose 1000 g/Ha
  Weight of weed (g/m^2): 1.86 g/m^2
  % Decrease in weight of weed: 36%

## CCN(CC)C(=O)[C@@H](C)Oc1cccc2ccccc12 [Napropamide-M 450 g/L, Napropamide-M]
LOLMU (S-strain); dose 315 g/Ha
  Control in weed (%): 69.80%

## CCc1cccc(C)c1N(COC(C)C)C(=O)CCl [Propisochlor, propisochlor]
[2]; 720 g/L, dose 800 g/Ha
  Weight of weed (g/m^2): 760 g/m^2
  % Decrease in weight of weed: 74%

## CCCN(CCC)C(=O)SCc1ccccc1 [Prosulfocarb 800 g/L, prosulfocarb]
LOLMU (S-strain); dose 2400 g/Ha
  Control in weed (%): 68.14%
LOLMU (S-strain); dose 5000 g/Ha
  Control in weed (%): 78.02%
